From the supplement of paper PMC11451515

System: P12-Ichikawa
Assay: cell viability relative to DMSO control; higher = less cytotoxic
Conditions: 48 h
Method in brief: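 Library compounds in DMSO were pin-dosed in an 11-point threefold series (47 μM to 0.79 nM) onto leukemia cells in 1536-well plates (5 μl). Plates held 500 cells/well of NOMO1 or SEM or 1000 cells/well of P12-Ichikawa, each adapted for at least four passages in each medium. Luminescence was read with CellTiter-Glo One after 48 h at 37°C. Viability means the per-plate percentage relative to DMSO wells, using cell-free wells as background.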

[1] = HPLM + 10% dialyzed FBS, 0.000781 µM
[2] = HPLM + 10% dialyzed FBS, 0.00234 µM
[3] = HPLM + 10% dialyzed FBS, 0.00702 µM
[4] = HPLM + 10% dialyzed FBS, 0.0211 µM
[5] = HPLM + 10% dialyzed FBS, 0.0632 µM
[6] = HPLM + 10% dialyzed FBS, 0.19 µM
[7] = HPLM + 10% dialyzed FBS, 0.569 µM
[8] = HPLM + 10% dialyzed FBS, 1.71 µM
[9] = HPLM + 10% dialyzed FBS, 5.12 µM
[10] = HPLM + 10% dialyzed FBS, 15.4 µM
[11] = HPLM + 10% dialyzed FBS, 46.1 µM
[12] = RPMI 5 mM glucose + 10% FBS, 0.000781 µM
[13] = RPMI 5 mM glucose + 10% FBS, 0.00234 µM
[14] = RPMI 5 mM glucose + 10% FBS, 0.00702 µM
[15] = RPMI 5 mM glucose + 10% FBS, 0.0211 µM
[16] = RPMI 5 mM glucose + 10% FBS, 0.0632 µM
[17] = RPMI 5 mM glucose + 10% FBS, 0.19 µM
[18] = RPMI 5 mM glucose + 10% FBS, 0.569 µM
[19] = RPMI 5 mM glucose + 10% FBS, 1.71 µM
[20] = RPMI 5 mM glucose + 10% FBS, 5.12 µM
[21] = RPMI 5 mM glucose + 10% FBS, 15.4 µM
[22] = RPMI 5 mM glucose + 10% FBS, 46.1 µM
[23] = RPMI 5 mM glucose + 10% dialyzed FBS, 0.000781 µM
[24] = RPMI 5 mM glucose + 10% dialyzed FBS, 0.00234 µM
[25] = RPMI 5 mM glucose + 10% dialyzed FBS, 0.00702 µM
[26] = RPMI 5 mM glucose + 10% dialyzed FBS, 0.0211 µM
[27] = RPMI 5 mM glucose + 10% dialyzed FBS, 0.0632 µM
[28] = RPMI 5 mM glucose + 10% dialyzed FBS, 0.19 µM
[29] = RPMI 5 mM glucose + 10% dialyzed FBS, 0.569 µM
[30] = RPMI 5 mM glucose + 10% dialyzed FBS, 1.71 µM
[31] = RPMI 5 mM glucose + 10% dialyzed FBS, 5.12 µM
[32] = RPMI 5 mM glucose + 10% dialyzed FBS, 15.4 µM
[33] = RPMI 5 mM glucose + 10% dialyzed FBS, 46.1 µM

| SMILES | cell viability [1] | cell viability [2] | cell viability [3] | cell viability [4] | cell viability [5] | cell viability [6] | cell viability [7] | cell viability [8] | cell viability [9] | cell viability [10] | cell viability [11] | cell viability [12] | cell viability [13] | cell viability [14] | cell viability [15] | cell viability [16] | cell viability [17] | cell viability [18] | cell viability [19] | cell viability [20] | cell viability [21] | cell viability [22] | cell viability [23] | cell viability [24] | cell viability [25] | cell viability [26] | cell viability [27] | cell viability [28] | cell viability [29] | cell viability [30] | cell viability [31] | cell viability [32] | cell viability [33] |
| --- | --- | --- | --- | --- | --- | --- | --- | --- | --- | --- | --- | --- | --- | --- | --- | --- | --- | --- | --- | --- | --- | --- | --- | --- | --- | --- | --- | --- | --- | --- | --- | --- | --- |
| CN1CCCN(C(=O)c2cccc(-c3ccc(/C=C4/C(=O)Nc5ccc(Cl)cc54)o3)c2)CC1 | 106% | 119% | 114% | 116% | 114% | 120% | 106% | 92.3% | 76.9% | 76.9% | 59.2% | 117% | 108% | 111% | 117% | 115% | 110% | 102% | 85.8% | 54.7% | 20.1% | 3.03% | 103% | 107% | 117% | 114% | 113% | 108% | 111% | 90.7% | 64.3% | 53% | 5.68% |
| CO/N=C(/C(=O)N[C@@H]1C(=O)N2C(C(=O)O)=C(Cn3ccc(=N)n3CCO)CS[C@H]12)c1csc(N)n1 | 121% | 123% | 125% | 136% | 135% | 126% | 134% | 126% | 141% | 137% | 125% | – | – | – | – | – | – | – | – | – | – | – | – | – | – | – | – | – | – | – | – | – | – |
| C[C@]\1(CCS\C(=N1)N)C2=CC(=C(F)C=C2F)C3=CN=CN=C3 | 98.2% | 101% | 112% | 103% | 110% | 115% | 115% | 122% | 106% | 15.2% | 2.53% | 99.3% | 103% | 119% | 117% | 113% | 114% | 121% | 113% | 117% | 30.2% | 8.85% | 92.1% | 109% | 104% | 109% | 110% | 108% | 101% | 98.6% | 99.8% | 62% | 13.4% |
| COC1=CC=C2Nc3cc(Cl)ccc3C(N=C3C=C(CN4CCCC4)C(=O)C(CN4CCCC4)=C3)=C2N1 | 116% | 116% | 116% | 122% | 123% | 123% | 120% | 127% | 124% | 117% | 103% | 110% | 131% | 114% | 130% | 133% | 130% | 133% | 132% | 129% | 122% | 87.6% | 113% | 123% | 120% | 126% | 120% | 115% | 127% | 125% | 115% | 117% | 93% |
